Measured values: the NIST ThermoML archive (doi:10.1021/acs.jced.5b00152)

Conditions: Liquid; for viscosity: Capillary tube (Ostwald / Ubbelohde) method; for mass density: Vibrating tube method

CCCCCCC [heptane]
Conditions	mass density [kg/m3]	viscosity [mPa·s]
293.25 K, 2103 kPa	685.58	0.4229
293.25 K, 3666 kPa	687.27	0.4317
293.25 K, 6195 kPa	689.52	0.4449
293.25 K, 10385 kPa	693.22	0.4681
293.25 K, 14421 kPa	696.48	0.4907
293.25 K, 17447 kPa	698.88	0.5062
293.25 K, 20472 kPa	701.01	0.5237
293.25 K, 23543 kPa	703.3	0.5407
293.25 K, 26611 kPa	705.5	0.5567
313.07 K, 11204 kPa	678.28	0.3782
313.07 K, 17225 kPa	683.61	0.4049
313.07 K, 20247 kPa	686.13	0.4185
313.07 K, 29805 kPa	693.98	0.4596
313.08 K, 2050 kPa	669.15	0.3388
313.08 K, 4083 kPa	671.15	0.3472
313.08 K, 6733 kPa	673.77	0.359
313.08 K, 14195 kPa	681.03	0.3912
313.08 K, 23266 kPa	688.54	0.4314
313.08 K, 26286 kPa	691.26	0.4449
332.77 K, 4091 kPa	654.57	0.2886
332.78 K, 2084 kPa	652.25	0.2805
332.78 K, 7031 kPa	658.26	0.2994
332.78 K, 11151 kPa	662.67	0.3143
332.78 K, 14177 kPa	665.56	0.3261
332.78 K, 17172 kPa	668.79	0.3367
332.78 K, 20193 kPa	671.47	0.3472
332.78 K, 23214 kPa	674.57	0.3581
332.78 K, 26231 kPa	677.28	0.3689
352.39 K, 2184 kPa	635.33	0.2346
352.39 K, 4102 kPa	637.96	0.2413
352.39 K, 11159 kPa	646.85	0.2635
352.39 K, 14169 kPa	650.4	0.2732
352.39 K, 17199 kPa	653.84	0.283
352.39 K, 29758 kPa	666.6	0.3207
352.4 K, 7146 kPa	641.83	0.2514
352.4 K, 20204 kPa	657.05	0.2922
352.4 K, 23212 kPa	660.04	0.3015
352.4 K, 26228 kPa	663.06	0.3106

CCCCCO [pentan-1-ol]
Conditions	mass density, 298.15 K [kg/m3]	mass density, 323.15 K [kg/m3]	viscosity, 298.15 K [mPa·s]	viscosity, 323.15 K [mPa·s]
1999 kPa	–	794.19	–	1.835
2003 kPa	811.93	–	3.593	–
3999 kPa	813.3	–	3.661	–
4001 kPa	–	795.77	–	1.868
6001 kPa	–	797.32	–	1.903
6003 kPa	814.64	–	3.731	–
8000 kPa	–	798.83	–	1.937
8005 kPa	815.96	–	3.799	–
9998 kPa	–	800.31	–	1.972
10001 kPa	817.26	–	3.867	–
12999 kPa	–	802.47	–	2.025
13000 kPa	819.15	–	3.972	–
16001 kPa	–	804.56	–	2.078
16004 kPa	821	–	4.08	–
19002 kPa	–	806.59	–	2.134
19006 kPa	822.8	–	4.19	–
22000 kPa	824.56	–	4.301	–
22001 kPa	–	808.56	–	2.19
24998 kPa	826.27	–	4.41	–
25002 kPa	–	810.48	–	2.245

O [water]
Conditions	mass density [kg/m3]	viscosity [mPa·s]
293.36 K, 2061 kPa	999.51	0.9917
293.36 K, 4085 kPa	999.98	0.9931
293.37 K, 7118 kPa	1001.28	0.9928
293.37 K, 26278 kPa	1010.35	0.9863
293.38 K, 11158 kPa	1003.59	0.9898
293.38 K, 17210 kPa	1006.18	0.9897
293.38 K, 20234 kPa	1006.98	0.988
293.38 K, 23255 kPa	1008.25	0.9883
313.08 K, 4076 kPa	994.07	0.6535
313.08 K, 7109 kPa	995.47	0.6538
313.08 K, 11150 kPa	996.66	0.6546
313.08 K, 14177 kPa	997.99	0.655
313.08 K, 17203 kPa	999.9	0.6552
313.08 K, 20228 kPa	1000.99	0.6557
313.08 K, 23250 kPa	1001.91	0.6559
313.08 K, 26271 kPa	1003.18	0.6562
313.08 K, 29788 kPa	1004.77	0.6586
313.09 K, 2053 kPa	992.98	0.6538
332.85 K, 14173 kPa	989.5	0.4707
332.85 K, 17195 kPa	990.83	0.4712
332.85 K, 20214 kPa	991.48	0.4725
332.85 K, 26252 kPa	994.06	0.4751
332.86 K, 4081 kPa	984.88	0.4685
332.86 K, 7113 kPa	985.99	0.4685
332.86 K, 11150 kPa	988.22	0.47
352.57 K, 4073 kPa	973.51	0.3574
352.58 K, 2044 kPa	972.64	0.3565
352.58 K, 7107 kPa	975.4	0.3582
352.59 K, 11142 kPa	977	0.3592
352.59 K, 14161 kPa	977.85	0.36
352.6 K, 17181 kPa	979.13	0.361
352.6 K, 20194 kPa	980.96	0.3617
352.6 K, 23203 kPa	982.36	0.3627
352.6 K, 26211 kPa	983.69	0.3638
352.6 K, 29715 kPa	984.92	0.3648
